Literature values in US10961240B2, “Formulations of a compound modulating kinases” (Plexxikon Inc., priority 2017, dated 2021).

What was measured:
Hodgkin Lymphoma = conditions: heavily pretreated patient cohort
microglia = conditions: sustained after intracerebral hemorrhage
[1] = system: neurofibromatosis affected mice
TGCT = conditions: phase III
mouse melanoma models = conditions: with tumor-specific CD8 T cells

Compound: FC(F)(F)c1ccc(CNc2ccc(Cc3c[nH]c4ncc(Cl)cc34)cn2)cn1 [Compound I]
- efficacy (Hodgkin Lymphoma): modest efficacy
- safety profile (Hodgkin Lymphoma): manageable safety profile
- tumor growth (MPNST xenograft; MPNST xenograft): significant suppression of tumor growth
- blockade of receptor tyrosine kinases (MPNST xenograft; MPNST xenograft samples): sustained blockade of c-Kit, c-Fms and PDGFRβ
- microglia depletion (microglia): effectively depleted microglia
- bone loss [1]: prevented bone loss
- primary endpoint: tumor response measured by tumor size reduction (TGCT): met its primary endpoint
- control of tumor outgrowth (mouse melanoma models): strongly promoted the control of tumor outgrowth
